Experimental data as given in patent US9328138B2 (priority 2011, dated 2016).

Experiments:
[1] = target: T1, HCV genotype 1b (BK) NS3 modified enzyme with a R155K mutation (Hepatitis C virus genotype 1b, UniProt P26663, R1181K); assay: HCV NS3 protease time-resolved fluorescence (TRF) assay, genotype 1b R155K; format: biochemical; details: Ki 1b R155K, genotype 1b (BK) NS3 R155K; single value
T1 construct: HCV genotype 1b (BK) NS3 modified enzyme
Method in brief: (§1)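 IC50 values derive from 4-parameter fitting of TRF signal after a 6 h room-temperature cleavage of 25 nM peptide substrate by NS3/NS4A that had been pre-incubated 10 min with compound.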

[2] = target: HCV NS3 protease genotype 3a (3A-1) (Hepatitis C virus genotype 3a, UniProt Q81258); assay: HCV NS3 protease time-resolved fluorescence (TRF) assay, genotype 3a; format: biochemical; details: Ki 3a
Method in brief: as §1

Structure (SMILES)	Ki [1] [nM]	Ki [2] [nM]
C=C[C@@H]1C[C@]1(NC(=O)[C@@H]1C[C@@H]2CN1C(=O)[C@H](C(C)(C)C)NC(=O)O[C@@H]1C[C@H]1CCCCCc1c(nc3ccccc3c1OCCCN(C)Cc1n[nH]c(=O)[nH]1)O2)C(=O)NS(=O)(=O)C1(C)CC1 [Example 199, (1aR,5S,8S,10R,22aR)-5-tert-butyl-N-[(1R,2S)-2-ethenyl-1-{[(1-methylcyclopropyl)sulfonyl]carbamoyl}cyclopropyl]-17-(3-{methyl[(5-oxo-4,5-dihydro-1H-1,2,4-triazol-3-yl)methyl]amino}propoxy)-3,6-dioxo-1,1a,3,4,5,6,9,10,18,19,20,21, 22,22a-tetradecahydro-8H-7,10-methanocyclopropa[18,19][1,10,3,6] dioxadiazacyclononadecino[11,12-b] quinoline-8-carboxamide]	0.057	0.74
C=C[C@@H]1C[C@]1(NC(=O)[C@@H]1C[C@@H]2CN1C(=O)[C@H](C(C)(C)C)NC(=O)O[C@@H]1C[C@H]1CCCCCc1c(nc3ccccc3c1OCCCN(C)Cc1ncc[nH]1)O2)C(=O)NS(=O)(=O)C1(C)CC1 [Example 200, (1aR,5S,8S,10R,22aR)-5-tert-butyl-N-[(1R,2S)-2-ethenyl-1-{[(1-methylcyclopropyl)sulfonyl]carbamoyl}cylcopropyl]-17-{3-[(1H-imidazol-2-ylmethyl)(methyl)amino]propoxy}-3,6-dioxo-1,1a,3,4,5,6,9,10,18, 19,20,21,22,22a-tetradecahydro-8H-7,10-methanocyclopropa[18,19][1,10,3,6] dioxadiazacyclononadecino[11,12-b] quinoline-8-carboxamide]	0.074	0.96
C=C[C@@H]1C[C@]1(NC(=O)[C@@H]1C[C@@H]2CN1C(=O)[C@H](C(C)(C)C)NC(=O)O[C@@H]1C[C@H]1CCCCCc1c(nc3ccccc3c1OCCCN(C)Cc1ncc(C)[nH]1)O2)C(=O)NS(=O)(=O)C1(C)CC1 [Example 201, (1aR,5S,8S,10R,22aR)-5-tert-butyl-N-[(1R,2S)-2-ethenyl-1-{[(1-methylcyclopropyl)sulfonyl]carbamoyl}cyclopropyl]-17-(3-{methyl[(5-methyl1H-imidazol-2-yl)methyl]amino}proopoxy)-3,6-dioxo-1,1a,3,4,5,6,9,10,18,19,20,21,22,22a-tetradecahydro-8H-7,10-methanocyclopropa[18,19][1,10,3,6] dioxadiazacyclononadecino[11,12-b] quinoline-8-carboxamide]	0.079	1.3
C=C[C@@H]1C[C@]1(NC(=O)[C@@H]1C[C@@H]2CN1C(=O)[C@H](C(C)(C)C)NC(=O)O[C@@H]1C[C@H]1CCCCCc1c(nc3ccccc3c1OCCCN(C)Cc1ccn[nH]1)O2)C(=O)NS(=O)(=O)C1(C)CC1 [Example 202, (1aR,5S,8S,10R,22aR)-5-tert-butyl-N-[(1R,2S)-2-ethenyl-1-{[(1-methylcyclopropyl)sulfonyl]carbamoyl}cyclopropyl]-17-{3-[methyl(1H-pyrazol-5-ylmethyl)amino]propoxy}-3,6-dioxo-1,1a,3,4,5,6,9,10,18, 19,20,21,22,22a-tetradecahydro-8H-7,10-methanocyclopropa[18,19][1,10,3,6] dioxadiazacyclononadecino[11,12-b] quinoline-8-carboxamide]	0.05	0.95
C=C[C@@H]1C[C@]1(NC(=O)[C@@H]1C[C@@H]2CN1C(=O)[C@H](C(C)(C)C)NC(=O)O[C@@H]1C[C@H]1CCCCCc1c(nc3ccccc3c1OCCCN1CCCCC1c1nc3cc(F)ccc3[nH]1)O2)C(=O)NS(=O)(=O)C1(C)CC1 (stereo partly drawn) [Example 203, (1aR,5S,8S,10R,22aR)-5-tert-butyl-N-[(1R,2S)-2-ethenyl-1-{[(1-methylcyclopropyl)sulfonyl]carbamoyl}cyclopropyl]-17-{3-[2-(5-fluoro-1H-benzimidazol-2-yl)piperidin-1-yl]propoxy}-3,6-dioxo-1,1a,3,4,5,6,9,10,18,19,20, 21,22,22a-tetradecahydro-8H-7,10-methanocyclopropa[18,19][1,10,3,6] dioxadiazacyclononadecino[11,12-b] quinoline-8-carboxamide]	0.13	4.9
C=C[C@@H]1C[C@]1(NC(=O)[C@@H]1C[C@@H]2CN1C(=O)[C@H](C(C)(C)C)NC(=O)O[C@@H]1C[C@H]1CCCCCc1c(nc3ccccc3c1OCCCNC1CCCc3ccccc31)O2)C(=O)NS(=O)(=O)C1(C)CC1 (stereo partly drawn) [Example 204, (1aR,5S,8S,10R,22aR)-5-tert-butyl-N-[(1R,2S)-2-ethenyl-1-{[(1-methylcyclopropyl)sulfonyl]carbamoyl}cyclopropyl]-3,6-dioxo-17-[3-(1,2,3,4-tetrahydronaphthalen-1-ylamino)propoxy]-1,1a,3,4,5,6,9,10,18,19, 20,21,22,22a-tetradecahydro-8H-7,10-methanocyclopropa[18,19][1,10,3,6] dioxadiazacyclononadecino[11,12-b] quinoline-8-carboxamide]	0.15	2.4
C=C[C@@H]1C[C@]1(NC(=O)[C@@H]1C[C@@H]2CN1C(=O)[C@H](C(C)(C)C)NC(=O)O[C@@H]1C[C@H]1CCCCCc1c(nc3ccccc3c1OCCCN1CCNC(C(F)(F)F)C1)O2)C(=O)NS(=O)(=O)C1(C)CC1 (stereo partly drawn) [Example 205, (1aR,5S,8S,10R,22aR)-5-tert-butyl-N-[(1R,2S)-2-ethenyl-1-{[(1-methylcyclopropyl)sulfonyl]carbamoyl}cylcopropyl]-3,6-dioxo-17-{3-[3-(trifluoromethyl)piperazin-1-yl]propoxy}-1,1a,3,4,5,6,9,10,18, 19,20,21,22,22a-tetradecahydro-8H-7,10-methanocyclopropa[18,19][1,10,3,6] dioxadiazacyclononadecino[11,12-b] quinoline-8-carboxamide]	0.19	1.9
C=C[C@@H]1C[C@]1(NC(=O)[C@@H]1C[C@@H]2CN1C(=O)[C@H](C(C)(C)C)NC(=O)O[C@@H]1C[C@H]1CCCCCc1c(nc3ccccc3c1OCCCN1CC(F)(F)C1)O2)C(=O)NS(=O)(=O)C1(C)CC1 [Example 206, (1aR,5S,8S,10R,22aR)-5-tert-butyl-17-[3-(3,3-difluoroazetidin-1-yl)propoxy]-N-[(1R,2S)-2-ethenyl-1-{[(1-methylcyclopropyl)sulfonyl]carbamoyl}cyclopropyl]-3,6-dioxo-1,1a,3,4,5,7,9,10,18,19,20,21,22,22a-tetradecahydro-8H-7,10-methanocyclopropa[18,19][1,10,3,6] dioxadiazacyclononadecino[11,12-b] quinoline-8-carboxamide]	0.2	2.6
C=C[C@@H]1C[C@]1(NC(=O)[C@@H]1C[C@@H]2CN1C(=O)[C@H](C(C)(C)C)NC(=O)O[C@@H]1C[C@H]1CCCCCc1c(nc3ccccc3c1OCCCN1CCC3(CCCC3)C1)O2)C(=O)NS(=O)(=O)C1(C)CC1 [Example 207, (1aR,5S,8S,10R,22aR)-17-[3-(2-azaspiro[4.4]non-2-yl)propoxy]-5-tert-butyl-N-[(1R,2S)-2-ethenyl-1-{[(1-methylcylcopropyl)sulfonyl]carbamoyl}cyclopropyl]-3,6-dioxo-1,1a,3,4,5,7,9, 10,18,19,20,21,22,22a-tetradecahydro-8H-7,10-methanocyclopropa[18,19][1,10,3,6] dioxadiazacyclononadecino[11,12-b] quinoline-8-carboxamide]	0.11	1.3
C=C[C@@H]1C[C@]1(NC(=O)[C@@H]1C[C@@H]2CN1C(=O)[C@H](C(C)(C)C)NC(=O)O[C@@H]1C[C@H]1CCCCCc1c(nc3ccccc3c1OCCCN1CCC[C@@H]1C(N)=O)O2)C(=O)NS(=O)(=O)C1(C)CC1 [Example 208, (1aR,5S,8S,10R,22aR)-5-tert-butyl-17-{3-[(2R)-2-carbamoylpyrrolidin-1-yl]propoxy}-N-[(1R,2S)-2-ethenyl-1-{[(1-methylcyclopropyl)sulfonyl]carbamoyl}cyclopropyl]-3,6-dioxo-1,1a,3,4,5,6,9,10,18,19,20,21,22,22a-tetradecahydro-8H-7,10-methanocyclopropa[18,19][1,10,3,6] dioxadiazacyclononadecino[11,12-b] quinoline-8-carboxamide]	0.11	1
C=C[C@@H]1C[C@]1(NC(=O)[C@@H]1C[C@@H]2CN1C(=O)[C@H](C(C)(C)C)NC(=O)O[C@@H]1C[C@H]1CCCCCc1c(nc3ccccc3c1OCCCN1CCC(C)(O)C1)O2)C(=O)NS(=O)(=O)C1(C)CC1 (stereo partly drawn) [Example 209, (1aR,5S,8S,10R,22aR)-5-tert-butyl-N-[(1R,2S)-2-ethenyl-1-{[(1-methylcyclopropyl)sulfonyl]carbamoyl}cyclopropyl]-17-[3-(3-hydroxy-3-methylpyrrolidin-1-yl)propoxy]-3,6-dioxo-1,1a,3,4,5,6,9,10,18,19,20,21,22,22a-tetradeca hydro-8H-7,10-methanocyclopropa[18,19][1,10,3,6] dioxadiazacyclononadecino[11,12-b] quinoline-8-carboxamide]	0.056	0.55
C=C[C@@H]1C[C@]1(NC(=O)[C@@H]1C[C@@H]2CN1C(=O)[C@H](C(C)(C)C)NC(=O)O[C@@H]1C[C@H]1CCCCCc1c(nc3ccccc3c1OC1CCN(C)CC1)O2)C(=O)NS(=O)(=O)C1(C)CC1 [Example 210, (1aR,5S,8S,10R,22aR)-5-tert-butyl-N-[(1R,2S)-2-ethenyl-1-{[(1-methylcyclopropyl)sulfonyl]carbamoyl}cyclopropyl]-17-[(1-methylpiperidin-4-yl)oxy]-3,6-dioxo-1,1a,3,4,5,6,9,10,18,19,20,21,22,22a-tetradecahydro-8H-7,10-methanocyclopropa[18,19][1,10,3,6]dioxadiazacyclononadecino[11,12-b]quinoline-8-carboxamide]	0.046	0.29
